# Reference: patent US12139487B2, “Compounds and uses thereof” (Foghorn Therapeutics Inc., priority 2022, dated 2024)
# What was measured:
# BRM = molecular target: T1, BRM (Homo sapiens, UniProt P51531); test: ATPase catalytic activity assay (ADP-Glo), BRM; assay type: biochemical; conditions: Table 10; for Ratio (BRG1 IC50 (μM) divided by BRM IC50 (μM)): ATPase assay, selectivity BRG1/BRM; for IC50: ATPase catalytic activity assay (ADP-Glo)
# T1 construct: made in house; host or cells: High Five insect cells
# Description: (§1) The ATPase catalytic activity of BRM or BRG-1 was measured by an in vitro biochemical assay using ADP-Glo™ (Promega, V9102). The ADP-Glo™ kinase assay is performed in two steps once the reaction is complete. The first step is to deplete any unconsumed ATP in the reaction. The second step is to convert the reaction product ADP to ATP, which will be utilized by the luciferase to generate luminesce and be detected by a luminescence reader, such as Envision.
# The assay reaction mixture […] contains 30 nM of BRM or BRG-1, 20 nM salmon sperm DNA (from Invitrogen, UltraPure™ Salmon Sperm DNA Solution, cat #15632011), and 400 μM of ATP in the ATPase assay buffer, which comprises of 20 mM Tris, pH 8, 20 mM MgCl2, 50 mM NaCl, 0.1% Tween-20, and 1 mM fresh DTT (Pierce™ DTT (Dithiothreitol), cat #20290). The reaction is initiated by the addition of the 2.5 μL ATPase solution to 2.5 μL ATP/DNA solution on low volume white Proxiplate-384 plus plate (PerkinElmer, cat #6008280) and incubates at room temperature for 1 hour. Then, following addition of 5 μL of ADP-Glo™ Reagent provided in the kit, the reaction incubates at room temperature for 40 minutes. Then, 10 μL of Kinase Detection Reagent provided in the kit is added to convert ADP to ATP, and the reaction incubates at room temperature for 60 minutes. Finally, luminescence measurement is collected with a plate-reading luminometer, such as Envision.
# BRG-1 = molecular target: T2, BRG-1 (Homo sapiens, UniProt P51532); test: ATPase catalytic activity assay (ADP-Glo), BRG-1; assay type: biochemical; conditions: Table 10, read-out: BRG1 IC50
# T2 construct: made in house; host or cells: High Five insect cells
# Description: as §1
# Then, following addition of 5 μL of ADP-Glo™ Reagent provided in the kit, the reaction incubates at room temperature for 40 minutes. Then, 10 μL of Kinase Detection Reagent provided in the kit is added to convert ADP to ATP, and the reaction incubates at room temperature for 60 minutes. Finally, luminescence measurement is collected with a plate-reading luminometer, such as Envision.
# T1 sequence (P51531 whole entry): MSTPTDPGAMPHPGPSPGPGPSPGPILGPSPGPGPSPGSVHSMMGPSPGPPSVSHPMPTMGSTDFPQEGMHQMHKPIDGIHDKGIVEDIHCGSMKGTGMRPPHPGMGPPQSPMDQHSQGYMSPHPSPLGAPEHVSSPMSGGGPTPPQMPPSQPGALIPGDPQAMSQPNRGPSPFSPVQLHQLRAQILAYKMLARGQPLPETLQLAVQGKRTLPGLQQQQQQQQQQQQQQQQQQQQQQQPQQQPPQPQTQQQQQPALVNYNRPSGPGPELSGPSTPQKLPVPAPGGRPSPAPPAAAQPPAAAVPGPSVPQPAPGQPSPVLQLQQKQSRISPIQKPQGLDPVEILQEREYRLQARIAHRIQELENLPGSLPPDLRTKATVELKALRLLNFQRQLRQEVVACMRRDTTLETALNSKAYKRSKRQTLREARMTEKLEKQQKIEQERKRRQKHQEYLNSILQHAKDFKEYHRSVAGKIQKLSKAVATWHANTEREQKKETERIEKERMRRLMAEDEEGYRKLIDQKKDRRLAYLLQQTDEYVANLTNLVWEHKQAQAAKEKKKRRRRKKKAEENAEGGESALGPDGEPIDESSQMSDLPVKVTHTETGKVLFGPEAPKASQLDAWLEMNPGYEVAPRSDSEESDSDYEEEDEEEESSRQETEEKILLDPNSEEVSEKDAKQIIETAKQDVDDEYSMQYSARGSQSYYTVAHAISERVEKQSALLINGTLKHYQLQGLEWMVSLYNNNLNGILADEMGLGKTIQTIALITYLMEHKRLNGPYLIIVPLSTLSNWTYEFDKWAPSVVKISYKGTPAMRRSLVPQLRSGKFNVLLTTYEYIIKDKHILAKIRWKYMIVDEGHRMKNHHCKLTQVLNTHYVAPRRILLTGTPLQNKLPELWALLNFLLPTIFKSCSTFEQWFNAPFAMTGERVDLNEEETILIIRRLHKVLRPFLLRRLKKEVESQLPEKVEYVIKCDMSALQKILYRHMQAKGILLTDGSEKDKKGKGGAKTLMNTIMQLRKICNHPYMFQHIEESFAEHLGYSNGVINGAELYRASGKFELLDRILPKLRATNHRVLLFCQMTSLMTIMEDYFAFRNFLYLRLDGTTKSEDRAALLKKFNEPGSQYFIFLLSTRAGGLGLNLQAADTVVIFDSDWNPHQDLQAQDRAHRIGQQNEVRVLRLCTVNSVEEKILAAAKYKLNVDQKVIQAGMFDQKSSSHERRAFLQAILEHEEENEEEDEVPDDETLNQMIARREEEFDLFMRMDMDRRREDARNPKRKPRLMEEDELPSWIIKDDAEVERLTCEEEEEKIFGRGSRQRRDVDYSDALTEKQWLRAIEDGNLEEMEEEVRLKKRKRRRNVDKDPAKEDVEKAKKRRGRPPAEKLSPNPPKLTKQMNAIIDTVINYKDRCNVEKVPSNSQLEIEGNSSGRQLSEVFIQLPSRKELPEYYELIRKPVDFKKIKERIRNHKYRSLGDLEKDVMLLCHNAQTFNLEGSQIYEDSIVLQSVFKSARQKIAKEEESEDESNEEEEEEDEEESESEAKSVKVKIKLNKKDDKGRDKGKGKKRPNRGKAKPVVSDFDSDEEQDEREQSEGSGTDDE
# T2 sequence (P51532 whole entry): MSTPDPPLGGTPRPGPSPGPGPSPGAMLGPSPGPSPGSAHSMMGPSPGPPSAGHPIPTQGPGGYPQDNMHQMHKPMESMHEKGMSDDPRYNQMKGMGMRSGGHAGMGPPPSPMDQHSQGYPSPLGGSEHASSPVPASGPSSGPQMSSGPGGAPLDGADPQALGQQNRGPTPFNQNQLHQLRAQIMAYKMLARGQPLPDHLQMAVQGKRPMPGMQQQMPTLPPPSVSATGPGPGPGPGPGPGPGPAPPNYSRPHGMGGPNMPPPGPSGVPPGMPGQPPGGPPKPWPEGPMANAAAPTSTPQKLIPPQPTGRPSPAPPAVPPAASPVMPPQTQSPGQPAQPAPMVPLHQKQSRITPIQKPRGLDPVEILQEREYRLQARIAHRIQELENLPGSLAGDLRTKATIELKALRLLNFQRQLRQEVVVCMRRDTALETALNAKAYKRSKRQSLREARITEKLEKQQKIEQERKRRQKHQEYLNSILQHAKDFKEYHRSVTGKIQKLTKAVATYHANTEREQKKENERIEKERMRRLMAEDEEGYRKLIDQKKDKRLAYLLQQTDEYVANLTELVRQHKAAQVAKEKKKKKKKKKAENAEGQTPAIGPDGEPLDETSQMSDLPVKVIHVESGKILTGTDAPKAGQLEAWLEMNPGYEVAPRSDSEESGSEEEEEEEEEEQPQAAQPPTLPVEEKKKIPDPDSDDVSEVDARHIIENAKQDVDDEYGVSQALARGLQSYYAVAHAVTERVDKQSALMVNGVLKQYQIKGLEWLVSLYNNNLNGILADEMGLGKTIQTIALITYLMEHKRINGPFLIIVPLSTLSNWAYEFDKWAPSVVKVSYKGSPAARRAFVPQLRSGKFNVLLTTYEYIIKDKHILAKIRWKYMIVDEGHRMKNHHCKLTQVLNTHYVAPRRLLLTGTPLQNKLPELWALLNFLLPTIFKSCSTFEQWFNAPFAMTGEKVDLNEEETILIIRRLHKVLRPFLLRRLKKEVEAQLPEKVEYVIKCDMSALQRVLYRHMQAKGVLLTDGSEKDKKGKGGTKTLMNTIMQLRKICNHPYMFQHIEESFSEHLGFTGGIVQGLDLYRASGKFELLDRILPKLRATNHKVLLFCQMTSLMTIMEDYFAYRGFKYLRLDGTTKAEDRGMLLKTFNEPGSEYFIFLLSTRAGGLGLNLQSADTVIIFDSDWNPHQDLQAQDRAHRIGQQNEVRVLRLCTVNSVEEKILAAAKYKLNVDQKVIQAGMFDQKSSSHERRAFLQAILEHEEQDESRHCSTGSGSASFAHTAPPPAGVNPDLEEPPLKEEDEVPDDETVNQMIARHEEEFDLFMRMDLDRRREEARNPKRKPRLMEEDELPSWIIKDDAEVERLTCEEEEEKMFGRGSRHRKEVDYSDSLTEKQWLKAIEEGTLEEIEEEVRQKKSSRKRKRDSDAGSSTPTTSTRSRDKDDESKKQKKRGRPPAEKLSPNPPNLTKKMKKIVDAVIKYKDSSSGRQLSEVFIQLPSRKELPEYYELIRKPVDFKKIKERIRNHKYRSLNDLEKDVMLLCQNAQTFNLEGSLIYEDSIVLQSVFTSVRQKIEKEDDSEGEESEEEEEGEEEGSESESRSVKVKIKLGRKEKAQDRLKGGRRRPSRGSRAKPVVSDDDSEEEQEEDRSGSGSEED
SMILES,Ratio (BRG1 IC50 (μM) divided by BRM IC50 (μM)) (BRM),IC50 (BRM) [nM],IC50 (BRG-1) [nM]
"C[C@@H]1CN(c2cccc(-c3ccc4cnc(CNC(=O)c5ccc6c(c5)S(=O)(=O)[C@@H](F)CN(C)C6)cc4n3)n2)C[C@H](C)O1 (single isomer, unassigned) [Compound 317]",7.78,227,1760
"C[C@@H]1CN(c2cccc(-c3ccc4cnc(CNC(=O)c5ccc6c(c5)S(=O)(=O)[C@@H](F)CN(C)C6)cc4n3)n2)C[C@H](C)O1 [Compound 1, (R)—N-((2-(6-((2S,6R)-2,6-dimethylmorpholino)pyridin-2-yl)-1,6-naphthyridin-7-yl)methyl)-2-fluoro-4-methyl-2,3,4,5-tetrahydrobenzo[f][1,4]thiazepine-8-carboxamide 1,1-dioxide]",7.29,2.9,21.4
COCCn1c(C)cc2c(-c3ccc4cnc(CNC(=O)c5cc(F)c6c(c5)S(=O)(=O)[C@@H](F)CCO6)cc4n3)cccc21 [Compound 2],18.80,0.6,10.5
[2H]C1([2H])OC([2H])([2H])[C@H](F)S(=O)(=O)c2cc(C(=O)NCc3cc4nc(N5CCOc6cc(C7CC7)cnc65)ccc4cn3)cc(F)c21 [Compound 3],–,0.8,25.2
CCOc1ccnc2c1CCCN2c1ccc2cnc(CNC(=O)c3cc(F)c4c(c3)S(=O)(=O)[C@@H](F)CCO4)cc2n1 [Compound 4],12.99,1.1,16.9
C[C@@H]1CN(c2cccc(-c3ccc4cnc(CNC(=O)c5cc(F)c6c(c5)S(=O)(=O)[C@H](F)CCCO6)cc4n3)n2)C[C@H](C)O1 [Compound 5],9.64,1.1,10.9
O=C(NCc1cc2nc(N3CCOc4cc(C5CC5)cnc43)ccc2cn1)c1cc(F)c2c(c1)S(=O)(=O)[C@@H](F)COC2 [Compound 8],14.89,1.3,22.3
O=C(NCc1cc2cc(N3CCOc4cc(C5CC5)cnc43)ccc2cn1)c1cc(F)c2c(c1)S(=O)(=O)[C@@H](F)COC2 [Compound 9],23.22,1.3,30.2
COCc1cc2c(c(F)c1Cl)N(c1ccc3cnc(CNC(=O)c4cc(F)c5c(c4)S(=O)(=O)[C@@H](F)CCO5)cc3n1)CCO2 [Compound 10],11.90,1.3,15.7
CCOc1ccnc2c1OCCN2c1ccc2cnc(CNC(=O)c3cc(F)c4c(c3)S(=O)(=O)[C@@H](F)COC4)cc2n1 [Compound 11],9.50,1.4,14.2
CCO[C@@H]1CCN(c2cccc(-c3ccc4cnc(CNC(=O)c5cc(F)c6c(c5)S(=O)(=O)[C@@H](F)COC6)cc4n3)n2)C1 [Compound 12],11.63,1.4,16.2
C[C@H]1C[C@@H]1c1ccc2c(n1)N(c1ccc3cnc(CNC(=O)c4cc(F)c5c(c4)S(=O)(=O)[C@@H](F)COC5)cc3n1)CCO2 [Compound 13],14.77,1.5,24.3
O=C(NCc1cc2nc(N3CCCc4c3ncc(F)c4OC3CC3)ccc2cn1)c1cc(F)c2c(c1)S(=O)(=O)[C@@H](F)CCO2 [Compound 15],11.06,1.5,16.6
C[C@@H]1CN(c2nccc(-c3ccc4cnc(CNC(=O)c5cc(F)c6c(c5)S(=O)(=O)[C@@H](F)CCO6)cc4c3)n2)C[C@H](C)O1 [Compound 16],10.27,1.5,17.8
CCN(CC)c1cnc2c(c1)OCCN2c1ccc2cnc(CNC(=O)c3cc(F)c4c(c3)S(=O)(=O)[C@@H](F)COC4)cc2n1 [Compound 17],12.76,1.5,23.4
O=C(NCc1cc2nc(N3CCCc4c(OC5CC5)ccnc43)ccc2cn1)c1cc(F)c2c(c1)S(=O)(=O)[C@@H](F)CCO2 [Compound 18],15.43,1.5,24
"C[C@@H]1CN(c2cncc(-c3ccc4cnc(CNC(=O)c5cc(F)c6c(c5)S(=O)(=O)[C@@H](F)CCO6)cc4c3)n2)C[C@H](C)O1 [Compound 19, (4R)—N-[[6-[6-[(2S,6R)-2,6-dimethylmorpholin-4-yl]pyrazin-2-yl]-3-isoquinolyl]methyl]-4,9-difluoro-5,5-dioxo-3,4-dihydro-2H-1,5λ6-benzoxathiepine-7-carboxamide]",13.20,1.6,20.7
C[C@H]1C[C@@H]1c1ccc2c(n1)N(c1ccc3cnc(CNC(=O)c4cc(F)c5c(c4)S(=O)(=O)[C@@H](F)CCO5)cc3n1)CCO2 [Compound 20],26.66,1.6,44.7
Cc1cc(C(=O)NCc2cc3nc(-c4cccc(N5C[C@@H](C)O[C@@H](C)C5)n4)ccc3cn2)cc2c1COC[C@H](F)S2(=O)=O [Compound 21],16.50,1.6,28.3
C[C@@H]1CN(c2cccc(-c3ccc4cnc(CNC(=O)c5ccc6c(c5)S(=O)(=O)[C@@H](F)CCO6)cc4n3)n2)C[C@H](C)O1 [Compound 22],9.93,1.6,16.2
[2H]C1([2H])OC([2H])([2H])[C@H](F)S(=O)(=O)c2cc(C(=O)NCc3cc4nc(-c5ccc(C(F)F)nc5OC)ccc4cn3)cc(F)c21 [Compound 23],–,1.6,37.9
CO[C@H](C)COc1ccc2c(c1)N(c1ccc3cnc(CNC(=O)c4cc(F)c5c(c4)S(=O)(=O)[C@@H](F)CCO5)cc3n1)CCO2 [Compound 24],18.65,1.7,31.1
O=C(NCc1cc2nc(N3CCOc4cc(C5(C(F)F)CC5)cnc43)ccc2cn1)c1cc(F)c2c(c1)S(=O)(=O)[C@@H](F)COC2 [Compound 25],21.51,1.7,43.9
O=C(NCc1cc2nc(N3CCOc4ccc([C@H]5C[C@@H]5C(F)F)nc43)ccc2cn1)c1cc(F)c2c(c1)S(=O)(=O)[C@@H](F)COC2 [Compound 26],21.77,1.7,39.1
CCOc1ccnc2c1OCCN2c1ccc2cnc(CNC(=O)c3cc(Cl)c4c(c3)S(=O)(=O)[C@@H](F)COC4)cc2n1 [Compound 27],11.52,1.8,19.5
Cc1cc(C(=O)NCc2cc3nc(N4CCOc5cc(N6CC[C@H]6C)cnc54)ccc3cn2)cc2c1COC[C@H](F)S2(=O)=O [Compound 28],22.66,1.8,42.2
CCOc1nc(C(F)F)ccc1-c1ccc2cnc(CNC(=O)c3cc(F)c4c(c3)S(=O)(=O)[C@@H](F)COC4)cc2n1 [Compound 29],22.36,1.8,35
O=C(NCc1cc2nc(N3CCOc4cc(N5CC(F)C5)cnc43)ccc2cn1)c1cc(F)c2c(c1)S(=O)(=O)[C@@H](F)COC2 [Compound 30],19.40,1.8,39.1
O=C(NCc1cc2nc(N3CCOc4cc(N5CC[C@H]5CF)cnc43)ccc2cn1)c1cc(F)c2c(c1)S(=O)(=O)[C@@H](F)CCO2 [Compound 31],18.05,1.8,33
